{
  "source": "ChEMBL document CHEMBL3044823",
  "about": "“Design, synthesis, and evaluation of anti-inflammatory and ulcerogenicity of novel pyridazinone derivatives” (Med Chem Res, 2012)",
  "key": {"Rattus norvegicus [1]": {"system": "Rattus norvegicus", "assay": "Ulcerogenicity in Rattus norvegicus Sprague-Dawley (rat) stomach assessed as ulcer score at 50 mg/kg administered via intragastrically after 6 hr by hematoxylin and eosin staining", "format": "toxicity, organism-based", "design": "dose 50 mg/kg, route intragastric", "details": "in vivo, po"}, "Rattus norvegicus [2]": {"system": "Rattus norvegicus", "assay": "Anti-inflammatory activity in Rattus norvegicus Sprague-Dawley (rat) assessed as inhibition of carrageenan-induced paw edema at 10 mg/kg administered 1 hr prior to carrageenan challenge measured at 4 hr relative to diclofenac", "format": "functional"}, "Rattus norvegicus [3]": {"system": "Rattus norvegicus", "assay": "Anti-inflammatory activity in Rattus norvegicus Sprague-Dawley (rat) assessed as inhibition of carrageenan-induced paw edema at 10 mg/kg administered 1 hr prior to carrageenan challenge measured at 1 hr relative to control", "format": "functional"}, "Rattus norvegicus [4]": {"system": "Rattus norvegicus", "assay": "Anti-inflammatory activity in Rattus norvegicus Sprague-Dawley (rat) assessed as inhibition of carrageenan-induced paw edema at 10 mg/kg administered 1 hr prior to carrageenan challenge measured at 4 hr relative to control", "format": "functional"}, "Rattus norvegicus [5]": {"system": "Rattus norvegicus", "assay": "Anti-inflammatory activity in Rattus norvegicus Sprague-Dawley (rat) assessed as inhibition of carrageenan-induced paw edema at 10 mg/kg administered 1 hr prior to carrageenan challenge measured at 2 hr relative to control", "format": "functional"}, "Rattus norvegicus [6]": {"system": "Rattus norvegicus", "assay": "Ulcerogenicity in Rattus norvegicus Sprague-Dawley (rat) stomach assessed as decrease in gastric mucosa layer thickness at 50 mg/kg administered via intragastrically after 6 hr by hematoxylin and eosin staining relative to untreated control", "format": "toxicity, organism-based", "design": "dose 50 mg/kg, route intragastric; scale not given: the % may be the effect or the level left", "details": "in vivo, po"}, "Rattus norvegicus [7]": {"system": "Rattus norvegicus", "assay": "Ulcerogenicity in Rattus norvegicus Sprague-Dawley (rat) stomach assessed as appearance of cone shape gastric mucosa layer at 50 mg/kg administered via intragastrically after 6 hr by hematoxylin and eosin staining relative to untreated control", "format": "toxicity, organism-based", "design": "dose 50 mg/kg, route intragastric", "details": "in vivo, po"}},
  "data": [
    {"smiles": "Cc1cccc(C)c1Nc1ccc(=O)[nH]n1", "values": [
      {"measurement": "UI", "setting": "Rattus norvegicus [1]", "result": 1.8}
    ]},
    {"smiles": "O=C(O)c1ccccc1Oc1ccc(=O)[nH]n1", "values": [
      {"measurement": "UI", "setting": "Rattus norvegicus [1]", "result": 2}
    ]},
    {"smiles": "O=c1ccc(Nc2ccccc2Br)n[nH]1", "values": [
      {"measurement": "UI", "setting": "Rattus norvegicus [1]", "result": 4.2}
    ]},
    {"smiles": "O=C(O)Cc1ccccc1Nc1c(Cl)cccc1Cl", "note": "[DICLOFENAC]", "values": [
      {"measurement": "inhibition in vivo at 10 mg/kg", "setting": "Rattus norvegicus [2]", "result": 100, "unit": "%"},
      {"measurement": "inhibition in vivo at 10 mg/kg", "setting": "Rattus norvegicus [3]", "result": 65.3, "unit": "%"},
      {"measurement": "inhibition in vivo at 10 mg/kg", "setting": "Rattus norvegicus [4]", "result": 78.3, "unit": "%"},
      {"measurement": "inhibition in vivo at 10 mg/kg", "setting": "Rattus norvegicus [5]", "result": 73.5, "unit": "%"}
    ]},
    {"smiles": "COc1ccc2c(c1)c(CC(=O)O)c(C)n2C(=O)c1ccc(Cl)cc1", "note": "[INDOMETHACIN]", "values": [
      {"measurement": "Activity", "setting": "Rattus norvegicus [6]", "result": 20, "unit": "%"},
      {"measurement": "UI", "setting": "Rattus norvegicus [1]", "result": 7.2},
      {"measurement": "Activity", "setting": "Rattus norvegicus [7]", "result": "Toxic"}
    ]}
  ]
}
